According to patent US20230114728A1 (Venatorx Pharmaceuticals, Inc., priority 2019, published 2023):
In brackets after ≈: the same amount, converted by molar mass.

Key:
Format in all cases: cell-based
[1] = system: E. coli D22; test: Broth microdilution MIC in CAMHB; settings: Escherichia coli; E. coli D22 (hyper-permeable); MHB; read-out: Minimum Inhibitory Concentration, E. coli D22
Method in brief: (§1)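 Hyper-permeable or efflux-deficient strains serve to probe outer-membrane penetration. Growth inhibition is scored visually after 16-20 h at 37° C in CAMHB, starting from 2-8×10^5 CFU/mL.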

[2] = system: P. aeruginosa ATCC 35151; test: Broth microdilution MIC in CAMHB; settings: Pseudomonas aeruginosa, ATCC35151; MHB; hyper-permeable strain; read-out: Minimum Inhibitory Concentration, P. aeruginosa ATCC 35151
Method in brief: as §1

[3] = system: E. coli AG100A; test: Broth microdilution MIC in CAMHB; settings: Escherichia coli, read-out: Minimum Inhibitory Concentration, E. coli AG100A
Method in brief: as §1

[4] = system: E. coli ATCC 25922; test: Broth microdilution MIC in CAMHB; settings: Escherichia coli, ATCC25922; E. coli ATCC 25922; MHB; read-out: Minimum Inhibitory Concentration, E. coli 25922
Method in brief: as §1

[5] = system: K. pneumoniae SI-117 producing VIM-1; test: Broth microdilution MIC in CAMHB; settings: Klebsiella pneumoniae, read-out: Minimum Inhibitory Concentration, K. pneumoniae SI-117
Method in brief: as §1

[6] = system: N. gonorrhoeae WHO L; test: Liquid broth MIC in Fastidious broth; settings: Neisseria gonorrhoeae; N. gonorrhoeae strain WHO L; Fastidious broth; read-out: Minimum Inhibitory Concentration, N. gonorrhoeae WHO L
Method in brief: (§2)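 Colonies were swabbed from chocolate agar after 24 h growth and standardised by optical density at 600 nm. Compounds were serially diluted twofold in Fastidious broth, and bacteria added to give 5×10^5 CFU/mL. After about 24 h at 36 °C in 5% CO2, the lowest concentration allowing under 10% growth was taken as MIC.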

[7] = system: N. gonorrhoeae WHO Z; test: Liquid broth MIC in Fastidious broth; settings: Neisseria gonorrhoeae, read-out: Minimum Inhibitory Concentration, N. gonorrhoeae WHO Z
Method in brief: (§3)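 MIC = lowest concentration giving <10% growth relative to untreated wells, scored by eye after ~24 h at 36 °C, 5% CO2. Strains carry mosaic PBP2; inoculum 5×10^5 CFU/mL in Fastidious broth with 2-fold serial compound dilutions.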

[8] = system: N. gonorrhoeae ATCC 49226; test: Liquid broth MIC in Fastidious broth; settings: Neisseria gonorrhoeae, ATCC49226; N. gonorrhoeae strain ATCC 49226; Fastidious broth; read-out: Minimum Inhibitory Concentration, N. gonorrhoeae ATCC 49226
Method in brief: as §2

[9] = system: N. gonorrhoeae WHO Q; test: Liquid broth MIC in Fastidious broth; settings: Neisseria gonorrhoeae, read-out: Minimum Inhibitory Concentration, N. gonorrhoeae WHO Q
Method in brief: as §3

[10] = system: N. gonorrhoeae WHO K; test: Liquid broth MIC in Fastidious broth; settings: Neisseria gonorrhoeae, read-out: Minimum Inhibitory Concentration, N. gonorrhoeae WHO K
Method in brief: as §3

[11] = system: N. gonorrhoeae WHO G; test: Liquid broth MIC in Fastidious broth; settings: Neisseria gonorrhoeae; N. gonorrhoeae strain WHO G; Fastidious broth; read-out: Minimum Inhibitory Concentration, N. gonorrhoeae WHO G
Method in brief: as §2

[12] = system: N. gonorrhoeae FA1090; test: Liquid broth MIC in Fastidious broth; settings: Neisseria gonorrhoeae; N. gonorrhoeae strain FA1090; Fastidious broth; read-out: Minimum Inhibitory Concentration, N. gonorrhoeae FA1090
Method in brief: as §2

[13] = system: N. gonorrhoeae H041; test: Liquid broth MIC in Fastidious broth; settings: Neisseria gonorrhoeae, H041, read-out: Minimum Inhibitory Concentration, N. gonorrhoeae H041
Method in brief: as §3

| SMILES | MIC [1] | MIC [2] | MIC [3] | MIC [4] | MIC [5] | MIC [6] | MIC [7] | MIC [8] | MIC [9] | MIC [10] | MIC [11] | MIC [12] | MIC [13] |
| --- | --- | --- | --- | --- | --- | --- | --- | --- | --- | --- | --- | --- | --- |
| NCCN1CCN(C(=O)NC(C(=O)N[C@H]2Cc3cccc(C(=O)O)c3OB2O)c2cc(F)c(O)cc2Cl)C(=O)C1=O (stereo partly drawn) [Example 109, (3R)-3-(2-(4-(2-aminoethyl)-2,3-dioxopiperazine-1-carboxamido)-2-(2-chloro-5-fluoro-4-hydroxyphenyl)acetamido)-2-hydroxy-3,4-dihydro-2H-benzo[e][1,2]oxaborinine-8-carboxylic acid] | 8 to 16 µg/mL (≈ 13.5 to 27 µM) | 2 to 4 µg/mL (≈ 3.38 to 6.76 µM) | 8 to 16 µg/mL (≈ 13.5 to 27 µM) | 32 to 64 µg/mL (≈ 54.1 to 108 µM) | > 128 µg/mL | > 64 µg/mL | > 64 µg/mL | > 64 µg/mL | > 64 µg/mL | > 64 µg/mL | > 64 µg/mL | 4 to 8 µg/mL (≈ 6.76 to 13.5 µM) | > 64 µg/mL |
| CCN1CCN(C(=O)NC(C(=O)N[C@H]2Cc3cccc(C(=O)O)c3OB2O)c2cc(F)c(O)cc2F)C(=O)C1=O (stereo partly drawn) [Example 104, (3R)-3-(2-(2,5-difluoro-4-hydroxyphenyl)-2-(4-ethyl-2,3-dioxopiperazine-1-carboxamido)acetamido)-2-hydroxy-3,4-dihydro-2H-benzo[e][1,2]oxaborinine-8-carboxylic acid] | 2 to 4 µg/mL (≈ 3.57 to 7.14 µM) | 2 to 4 µg/mL (≈ 3.57 to 7.14 µM) | 2 to 4 µg/mL (≈ 3.57 to 7.14 µM) | 32 to 64 µg/mL (≈ 57.1 to 114 µM) | 32 to 64 µg/mL (≈ 57.1 to 114 µM) | 16 to 32 µg/mL (≈ 28.6 to 57.1 µM) | 4 to 8 µg/mL (≈ 7.14 to 14.3 µM) | 4 to 8 µg/mL (≈ 7.14 to 14.3 µM) | 4 to 8 µg/mL (≈ 7.14 to 14.3 µM) | 16 to 32 µg/mL (≈ 28.6 to 57.1 µM) | 1 to 2 µg/mL (≈ 1.78 to 3.57 µM) | 0.25 to 0.5 µg/mL (≈ 0.446 to 0.892 µM) | 16 to 32 µg/mL (≈ 28.6 to 57.1 µM) |
| NCCN1CCN(C(=O)N[C@@H](C(=O)N[C@H]2Cc3cccc(C(=O)O)c3OB2O)c2cccc(NS(N)(=O)=O)c2)C(=O)C1=O (single isomer, unassigned) [Example 114] | 8 to 16 µg/mL (≈ 13 to 25.9 µM) | 0.5 to 1 µg/mL (≈ 0.81 to 1.62 µM) | 2 to 4 µg/mL (≈ 3.24 to 6.48 µM) | 32 to 64 µg/mL (≈ 51.8 to 104 µM) | 32 to 64 µg/mL (≈ 51.8 to 104 µM) | > 64 µg/mL | > 64 µg/mL | > 64 µg/mL | > 64 µg/mL | > 64 µg/mL | 16 to 32 µg/mL (≈ 25.9 to 51.8 µM) | 4 to 8 µg/mL (≈ 6.48 to 13 µM) | > 64 µg/mL |
| CCN1CCN(C(=O)NC(C(=O)N[C@H]2Cc3cccc(C(=O)O)c3OB2O)c2cc(F)c(O)cc2Cl)C(=O)C1=O (stereo partly drawn) [Example 103, (3R)-3-(2-(2-chloro-5-fluoro-4-hydroxyphenyl)-2-(4-ethyl-2,3-dioxopiperazine-1-carboxamido)acetamido)-2-hydroxy-3,4-dihydro-2H-benzo[e][1,2]oxaborinine-8-carboxylic acid] | 2 to 4 µg/mL (≈ 3.47 to 6.94 µM) | 2 to 4 µg/mL (≈ 3.47 to 6.94 µM) | 2 to 4 µg/mL (≈ 3.47 to 6.94 µM) | 32 to 64 µg/mL (≈ 55.5 to 111 µM) | > 128 µg/mL | > 64 µg/mL | 16 to 32 µg/mL (≈ 27.7 to 55.5 µM) | 16 to 32 µg/mL (≈ 27.7 to 55.5 µM) | 16 to 32 µg/mL (≈ 27.7 to 55.5 µM) | 16 to 32 µg/mL (≈ 27.7 to 55.5 µM) | 1 to 2 µg/mL (≈ 1.73 to 3.47 µM) | 0.25 to 0.5 µg/mL (≈ 0.433 to 0.867 µM) | 16 to 32 µg/mL (≈ 27.7 to 55.5 µM) |
| CCN1CCN(C(=O)NC(C(=O)N[C@H]2Cc3cccc(C(=O)O)c3OB2O)c2cc(Cl)c(O)cc2F)C(=O)C1=O (stereo partly drawn) [Example 101, (3R)-3-(2-(5-chloro-2-fluoro-4-hydroxyphenyl)-2-(4-ethyl-2,3-dioxopiperazine-1-carboxamido)acetamido)-2-hydroxy-3,4-dihydro-2H-benzo[e][1,2]oxaborinine-8-carboxylic acid] | 2 to 4 µg/mL (≈ 3.47 to 6.94 µM) | 0.5 to 1 µg/mL (≈ 0.867 to 1.73 µM) | 2 to 4 µg/mL (≈ 3.47 to 6.94 µM) | 32 to 64 µg/mL (≈ 55.5 to 111 µM) | > 128 µg/mL | 16 to 32 µg/mL (≈ 27.7 to 55.5 µM) | 16 to 32 µg/mL (≈ 27.7 to 55.5 µM) | 4 to 8 µg/mL (≈ 6.94 to 13.9 µM) | 16 to 32 µg/mL (≈ 27.7 to 55.5 µM) | 16 to 32 µg/mL (≈ 27.7 to 55.5 µM) | 1 to 2 µg/mL (≈ 1.73 to 3.47 µM) | 0.25 to 0.5 µg/mL (≈ 0.433 to 0.867 µM) | 16 to 32 µg/mL (≈ 27.7 to 55.5 µM) |
| NCCCN1CCN(C(=O)N[C@@H](C(=O)N[C@H]2Cc3cccc(C(=O)O)c3OB2O)c2cccc(NS(N)(=O)=O)c2)C(=O)C1=O [Example 117, (R)-3-((R)-2-(4-(3-aminopropyl)-2,3-dioxopiperazine-1-carboxamido)-2-(3-(sulfamoylamino)phenyl)acetamido)-2-hydroxy-3,4-dihydro-2H-benzo[e][1,2]oxaborinine-8-carboxylic acid] | 2 to 4 µg/mL (≈ 3.17 to 6.33 µM) | < 0.25 µg/mL | 2 to 4 µg/mL (≈ 3.17 to 6.33 µM) | 32 to 64 µg/mL (≈ 50.7 to 101 µM) | 32 to 64 µg/mL (≈ 50.7 to 101 µM) | > 64 µg/mL | > 64 µg/mL | > 64 µg/mL | > 64 µg/mL | > 64 µg/mL | 16 to 32 µg/mL (≈ 25.3 to 50.7 µM) | 4 to 8 µg/mL (≈ 6.33 to 12.7 µM) | > 64 µg/mL |
